Each structure is given as a SMILES string. Bounds are passed on as bounds.

For the experiment, the target named is T1, human KCNK13 (Homo sapiens, UniProt Q9HB14).
T1 construct: expressed in transfected cells
T1 sequence (Q9HB14 1-408): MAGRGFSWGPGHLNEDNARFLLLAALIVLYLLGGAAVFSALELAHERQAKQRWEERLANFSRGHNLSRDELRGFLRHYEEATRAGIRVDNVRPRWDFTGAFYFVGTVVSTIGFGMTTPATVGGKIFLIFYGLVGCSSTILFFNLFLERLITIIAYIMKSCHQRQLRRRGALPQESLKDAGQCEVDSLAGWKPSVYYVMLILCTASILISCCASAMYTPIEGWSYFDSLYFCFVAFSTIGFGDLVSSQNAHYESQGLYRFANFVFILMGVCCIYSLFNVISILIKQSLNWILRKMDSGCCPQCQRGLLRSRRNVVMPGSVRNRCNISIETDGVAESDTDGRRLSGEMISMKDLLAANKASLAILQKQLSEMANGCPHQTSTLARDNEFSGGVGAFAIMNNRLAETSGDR
Kind of experiment: KCNK13 antagonist activity, thallium (Tl+) flux FLIPR assay. It counts as cell-based. The conditions noted are these: HEK 293 cells stably expressing human KCNK13; Tl+ sensitive dye, FLIPR; compounds 15 minutes prior to thallium sulfate; 10 point half log curves from 10 PM; read-out: hKCNK13 IC50. The method in brief: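 HEK 293 cells stably expressing human KCNK13 loaded with Tl+-sensitive dye for 1 h at room temperature. Compounds (10-point half-log curves) preincubated 15 min before thallium sulfate stimulus, fluorescence tracked by FLIPR. IC50 from ten-point curves, each point the mean of two wells.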
For the molecule `Cc1nonc1-c1nc2ccc(F)c(F)c2n1Cc1cccnc1` [Example 56, 3-[6,7-difluoro-1-(pyridin-3-ylmethyl)benzimidazol-2-yl]-4-methyl-1,2,5-oxadiazole], the 50% inhibitory concentration (IC50) is under 100 nM.

On to `Cc1nonc1-c1nc2ccccc2n1Cc1ccc(S(C)(=O)=O)nc1` [Example 58, 3-methyl-4-[1-[(6-(methylsulfonyl)pyridin-3-yl)methyl]benzimidazol-2-yl]-1,2,5-oxadiazole], for which the 50% inhibitory concentration (IC50) was under 100 nM.

For `Nc1nonc1-c1nc2cccnc2n1Cc1cccnc1` [Example 59, 4-[3-(pyridin-3-ylmethyl)imidazo[4,5-b]pyridin-2-yl]-1,2,5-oxadiazol-3-amine], the IC50 was under 200 nM.

Take `Cc1nonc1-c1nc2ccccc2n1Cc1ccc(Cl)nc1` [Example 60, 3-[1-[(6-chloropyridin-3-yl)methyl]benzimidazol-2-yl]-4-methyl-1,2,5-oxadiazole]: the IC50 was under 100 nM.

Take `Cc1ccc(Cn2c(-c3nonc3C)nc3ccccc32)cn1` [Example 63, 3-methyl-4-[1-[(6-methylpyridin-3-yl)methyl]benzimidazol-2-yl]-1,2,5-oxadiazole]: the 50% inhibitory concentration (IC50) was under 200 nM.

As to `Cc1ncc(Cn2c(-c3nonc3C)nc3ccccc32)cn1` [Example 64, 3-methyl-4-[1-[(2-methylpyrimidin-5-yl)methyl]benzimidazol-2-yl]-1,2,5-oxadiazole], the IC50 was under 200 nM.

With `Cc1nonc1-c1nc2c(F)ccc(F)c2n1Cc1cccnc1` [Example 65, 3-[4,7-difluoro-1-(pyridin-3-ylmethyl)benzimidazol-2-yl]-4-methyl-1,2,5-oxadiazole], the IC50 is under 50 nM.

Take `COc1cc(Cn2c(-c3nonc3C)nc3ccccc32)ccn1` [Example 66, 3-[1-[(2-methoxypyridin-4-yl)methyl]benzimidazol-2-yl]-4-methyl-1,2,5-oxadiazole]: the IC50 was under 200 nM.

Take `Cc1nonc1-c1nc2ccccc2n1Cc1cccnc1C#N` [Example 67, 3-[[2-(4-methyl-1,2,5-oxadiazol-3-yl)benzimidazol-1-yl]methyl]pyridine-2-carbonitrile]: the IC50 was under 200 nM.

On to `Fc1cccc2nc(-c3cnns3)n(Cc3cccnc3)c12` [Example 68, 5-[7-fluoro-1-(pyridin-3-ylmethyl)benzimidazol-2-yl]-1,2,3-thiadiazole], for which the IC50 was under 200 nM.

For the molecule `Cc1cccnc1Cn1c(-c2nonc2C)nc2ccccc21` [Example 69, 3-methyl-4-[1-[(3-methylpyridin-2-yl)methyl]benzimidazol-2-yl]-1,2,5-oxadiazole], the 50% inhibitory concentration (IC50) was under 200 nM.

Take `CCOc1cccc2nc(-c3nonc3C)n(Cc3ccncc3)c12` [Example 70, 3-[7-ethoxy-1-(pyridin-4-ylmethyl)benzimidazol-2-yl]-4-methyl-1,2,5-oxadiazole]: the IC50 is under 500 nM.

On to `Cc1nonc1-c1nc2cccc(N)c2n1Cc1cccnc1` [Example 72, 2-(4-methyl-1,2,5-oxadiazol-3-yl)-3-(pyridin-3-ylmethyl)benzimidazol-4-amine], for which the half-maximal inhibitory concentration (IC50) was under 500 nM.

Regarding `CNc1ccc(Cn2c(-c3nonc3C)nc3ccccc32)cn1` [Example 73, N-methyl-5-[[2-(4-methyl-1,2,5-oxadiazol-3-yl)benzimidazol-1-yl]methyl]pyridin-2-amine], the IC50 was under 500 nM.

With `Cc1cc(Cn2c(-c3nonc3C)nc3ccccc32)ccn1` [Example 74, 3-methyl-4-[1-[(2-methylpyridin-4-yl)methyl]benzimidazol-2-yl]-1,2,5-oxadiazole], the concentration for half-maximal inhibition (IC50) was under 500 nM.

For the molecule `Cc1cc(C)nc(Cn2c(-c3nonc3C)nc3ccccc32)c1` [Example 75, 3-[1-[(4,6-dimethylpyridin-2-yl)methyl]benzimidazol-2-yl]-4-methyl-1,2,5-oxadiazole], the half-maximal inhibitory concentration (IC50) is under 500 nM.

Regarding `Cc1nonc1-c1nc2ccccc2n1Cc1ccc[n+]([O-])c1` [Example 76, 3-methyl-4-[1-[(1-oxidopyridin-1-ium-3-yl)methyl]benzimidazol-2-yl]-1,2,5-oxadiazole], the IC50 was under 500 nM.

`Cc1nonc1-c1nc2ccccc2n1Cc1cc[n+]([O-])cc1` [Example 77, 3-methyl-4-[1-[(1-oxidopyridin-1-ium-4-yl)methyl]benzimidazol-2-yl]-1,2,5-oxadiazole]: the IC50 was under 1000 nM.

With `Cc1cccc(Cn2c(-c3nonc3C)nc3ccccc32)n1` [Example 78, 3-methyl-4-[1-[(6-methylpyridin-2-yl)methyl]benzimidazol-2-yl]-1,2,5-oxadiazole], the IC50 is under 500 nM.

Consider `Cc1nonc1-c1nc2ccccc2n1Cc1ccccn1` [Example 79, 3-methyl-4-[1-(pyridin-2-ylmethyl)benzimidazol-2-yl]-1,2,5-oxadiazole], for which the IC50 is under 500 nM.

As to `Cc1nsnc1-c1nc2ccc(F)cc2n1Cc1ccc(C#N)nc1` [Example 80, 5-[[6-fluoro-2-(4-methyl-1,2,5-thiadiazol-3-yl)benzimidazol-1-yl]methyl]pyridine-2-carbonitrile], the 50% inhibitory concentration (IC50) was under 1000 nM.

With `CNc1cccc2nc(-c3nonc3C)n(Cc3cccnc3)c12` [Example 81, N-methyl-2-(4-methyl-1,2,5-oxadiazol-3-yl)-3-(pyridin-3-ylmethyl)benzimidazol-4-amine], the half-inhibitory concentration (IC50) is under 1000 nM.

For the molecule `Cc1nonc1-c1nc2ccccc2n1Cc1ncccc1F` [Example 82, 3-[1-[(3-fluoropyridin-2-yl)methyl]benzimidazol-2-yl]-4-methyl-1,2,5-oxadiazole], the half-inhibitory concentration (IC50) is under 1000 nM.

On to `Cc1nonc1-c1nc2c(F)ccc(F)c2n1Cc1cnc(C#N)nc1` [Example 83, 5-[[4,7-difluoro-2-(4-methyl-1,2,5-oxadiazol-3-yl)benzimidazol-1-yl]methyl]pyrimidine-2-carbonitrile], for which the half-maximal inhibitory concentration (IC50) was under 200 nM.

As to `Cc1nonc1-c1nc2c(F)ccc(F)c2n1Cc1cncnc1` [Example 84, 3-[4,7-difluoro-1-(pyrimidin-5-ylmethyl)benzimidazol-2-yl]-4-methyl-1,2,5-oxadiazole], the IC50 was under 100 nM.

In the case of `Nc1nonc1-c1nc2ccccc2n1Cc1ccc(Br)nc1` [Example 88, 4-(1-((6-bromopyridin-3-yl)methyl)benzimidazol-2-yl)-1,2,5-oxadiazol-3-amine], the concentration for half-maximal inhibition (IC50) is under 50 nM.

In the case of `C=Cc1nsnc1-c1nc2ccccc2n1Cc1cccnc1` [Example 89, 3-[1-(pyridin-3-ylmethyl)benzimidazol-2-yl]-4-vinyl-1,2,5-thiadiazole], the IC50 is under 50 nM.

Take `Nc1nonc1-c1nc2ccccc2n1Cc1cccnc1` [Example 90, 4-[1-(pyridin-3-ylmethyl)benzimidazol-2-yl]-1,2,5-oxadiazol-3-amine]: the IC50 is under 50 nM.

Consider `Nc1nonc1-c1nc2ccc(F)cc2n1Cc1ccncc1` [Example 91, 4-[6-fluoro-1-(pyridin-4-ylmethyl)benzimidazol-2-yl]-1,2,5-oxadiazol-3-amine], for which the IC50 was under 50 nM.

Take `Nc1nonc1-c1nc2cc(F)ccc2n1Cc1ccncc1` [Example 92, 4-[5-fluoro-1-(pyridin-4-ylmethyl)benzimidazol-2-yl]-1,2,5-oxadiazol-3-amine]: the IC50 is under 50 nM.

Take `COc1cc(Cn2c(-c3nonc3N)nc3ccccc32)ccn1` [Example 93, 4-[1-[(2-methoxypyridin-4-yl)methyl]benzimidazol-2-yl]-1,2,5-oxadiazol-3-amine]: the 50% inhibitory concentration (IC50) was under 50 nM.

On to `Nc1nonc1-c1nc2ccccc2n1Cc1ccnc(C(F)(F)F)c1` [Example 94, 4-[1-[[2-(trifluoromethyl)pyridin-4-yl]methyl]benzimidazol-2-yl]-1,2,5-oxadiazol-3-amine], for which the half-maximal inhibitory concentration (IC50) was under 100 nM.

Take `Nc1nonc1-c1nc2ccccc2n1Cc1cncc(C(F)(F)F)c1` [Example 95, 4-[1-[[5-(trifluoromethyl)pyridin-3-yl]methyl]benzimidazol-2-yl]-1,2,5-oxadiazol-3-amine]: the half-inhibitory concentration (IC50) is under 100 nM.

Turning to `CNc1nsnc1-c1nc2ccccc2n1Cc1cccnc1` [Example 96, N-methyl-4-[1-(pyridin-3-ylmethyl)benzimidazol-2-yl]-1,2,5-thiadiazol-3-amine], the half-maximal inhibitory concentration (IC50) was under 100 nM.

As for `Nc1nonc1-c1nc2ccccc2n1Cc1ccc(C(F)(F)F)nc1` [Example 97, 4-[1-[[6-(trifluoromethyl)pyridin-3-yl]methyl]benzimidazol-2-yl]-1,2,5-oxadiazol-3-amine], the IC50 is under 100 nM.

As to `Cc1nonc1-c1nc2ccccc2n1Cc1ccncc1` [Example 98, 3-methyl-4-[1-(pyridin-4-ylmethyl)benzimidazol-2-yl]-1,2,5-oxadiazole], the 50% inhibitory concentration (IC50) is under 100 nM.

Regarding `N#Cc1nsnc1-c1nc2ccccc2n1Cc1cccnc1` [Example 99, 4-[1-(pyridin-3-ylmethyl)benzimidazol-2-yl]-1,2,5-thiadiazole-3-carbonitrile], the IC50 was under 100 nM.

As for `Cc1ccsc1-c1nc2ccccc2n1Cc1cccnc1` [Example 100, 2-(3-methylthiophen-2-yl)-1-(pyridin-3-ylmethyl)benzimidazole], the half-maximal inhibitory concentration (IC50) is under 200 nM.

Consider `Cc1nonc1-c1nc2ccccc2n1Cc1cccnc1` [Example 101, 3-methyl-4-[1-(pyridin-3-ylmethyl)benzimidazol-2-yl]-1,2,5-oxadiazole], for which the IC50 is under 100 nM.

Turning to `Cc1snnc1-c1nc2ccccc2n1Cc1cccnc1` [Example 102, 5-methyl-4-[1-(pyridin-3-ylmethyl)benzimidazol-2-yl]-1,2,3-thiadiazole], the half-inhibitory concentration (IC50) was under 200 nM.

As a reminder, the IC50 is the concentration that gives 50% inhibition.
